Reference: the supplement of paper PMC10307832

Key:
Experiment in all cases: relative viability (nuclei count vs DMSO), 5 days (fraction); higher = more cells survive
[1] = compound: CCn1c(-c2nonc2N)nc2cnc(Oc3cccc(NC(=O)c4ccc(OCCN5CCOCC5)cc4)c3)cc21 + COc1cc2c(Oc3ccc(NC(=O)C4(C(=O)Nc5ccc(F)cc5)CC4)cc3F)ccnc2cc1OCCCN1CCOCC1 [Foretinib] (partner 0.25 µM)
In short: (§1)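 Lung cancer cell lines, seeded in 1536-well plates, were treated the following day by pin tool with a single drug or with five library-drug doses (not always all listed) in √10 steps on top of a fixed anchor-drug dose. Cells were fixed and nuclei stained in one step after 5 days, and nuclei were counted. Relative viability is the nuclei count for treated wells divided by that for vehicle wells, reported as medians of duplicate plates.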

Mirin + Alpelisib = compound: N=C1NC(=O)/C(=C/c2ccc(O)cc2)S1 [Mirin] + Cc1nc(NC(=O)N2CCC[C@H]2C(N)=O)sc1-c1ccnc(C(C)(C)C(F)(F)F)c1 [Alpelisib] (partner 2 µM)
In short: as §1

[2] = compound: CCn1c(-c2nonc2N)nc2cnc(Oc3cccc(NC(=O)c4ccc(OCCN5CCOCC5)cc4)c3)cc21 + Nc1ncn([C@H]2C[C@H](O)[C@@H](CO)O2)c(=O)n1 [Decitabine] (partner 2 µM)
In short: as §1

[3] = compound: CCC1=CN=CN=C1N2CCN(CC2)CC3=NC4=C(N3)C=C(C=C4)C(F)(F)F + C[C@]1(O)C[C@@H](c2nc(-c3ccc4ccc(-c5ccccc5)nc4c3)c3c(N)nccn32)C1 [Linsitinib] (partner 1 µM)
In short: as §1

| Cell Line | relative viability ([1]; first compound 0.04 µM) | relative viability ([1]; first compound 0.1265 µM) | relative viability ([1]; first compound 0.4 µM) | relative viability ([1]; first compound 1.265 µM) | relative viability ([1]; first compound 4 µM) | relative viability (Mirin + Alpelisib; first compound 0.25 µM) | relative viability (Mirin + Alpelisib; first compound 0.7906 µM) | relative viability (Mirin + Alpelisib; first compound 2.5 µM) | relative viability (Mirin + Alpelisib; first compound 7.906 µM) | relative viability (Mirin + Alpelisib; first compound 25 µM) | relative viability ([2]; first compound 0.04 µM) | relative viability ([2]; first compound 0.1265 µM) | relative viability ([2]; first compound 0.4 µM) | relative viability ([2]; first compound 1.265 µM) | relative viability ([2]; first compound 4 µM) | relative viability ([3]; first compound 0.04 µM) | relative viability ([3]; first compound 0.1265 µM) | relative viability ([3]; first compound 0.4 µM) | relative viability ([3]; first compound 1.265 µM) | relative viability ([3]; first compound 4 µM) |
| --- | --- | --- | --- | --- | --- | --- | --- | --- | --- | --- | --- | --- | --- | --- | --- | --- | --- | --- | --- | --- |
| NCI-H322M | 1.51 | 1.24 | 1.22 | 0.71 | 0.8 | 0.783 | 0.844 | 0.734 | 0.829 | 0.844 | 0.585 | 0.63 | 0.824 | 0.767 | 0.648 | 0.979 | 0.801 | 0.911 | 0.909 | 1.02 |
| SK-MES-1 | 1.03 | 0.645 | 0.502 | 0.674 | 0.638 | 0.976 | 0.908 | 0.994 | 0.969 | 0.798 | 0.348 | 0.375 | 0.372 | 0.358 | 0.333 | 1.02 | 1.06 | 1.16 | 1.1 | 0.95 |
| HOP-62 | 1.12 | 1.22 | 1.02 | 0.864 | 0.789 | 0.969 | 1.02 | 1.13 |  | 0.939 | 0.226 | 0.215 | 0.23 | 0.211 | 0.202 | 1.27 | 1.02 | 0.983 | 0.87 | 0.77 |
| HCC-366 | 0.946 | 1 | 0.907 | 0.937 | 0.968 | 0.34 | 0.37 | 0.545 | 0.296 | 0.253 | 0.342 | 0.338 | 0.482 | 0.108 | 0.0747 | 0.907 | 0.595 | 0.525 |  | 0.661 |
| NCI-H2405 | 1.23 | 0.999 | 0.485 | 0.342 | 0.384 | 0.762 | 0.774 | 0.781 | 0.727 | 0.622 | 0.68 | 0.473 | 0.327 | 0.251 | 0.241 | 0.958 | 1.01 | 0.833 |  | 1.02 |
| A549 | 1.19 | 0.985 | 1.06 | 0.246 | 0.12 | 0.635 | 0.719 | 0.58 | 0.58 | 0.733 | 0.219 | 0.304 | 0.272 |  | 0.108 | 0.596 | 0.549 | 0.629 | 0.28 | 0.615 |
| LXF-289 | 1.06 | 1.02 | 0.982 | 0.936 | 0.882 | 1.03 | 1.05 | 1.06 | 1.13 | 1.03 | 0.359 | 0.403 | 0.353 | 0.384 | 0.318 | 0.983 | 0.957 | 0.983 | 0.976 | 0.954 |
| NCI-H1793 | 0.712 | 0.572 | 0.734 | 0.76 | 0.725 | 0.724 | 0.747 | 0.775 | 0.764 | 0.482 | 0.36 | 0.474 | 0.499 | 0.457 | 0.369 | 1 | 0.677 | 0.825 |  | 0.895 |
| LU99A | 0.872 | 0.886 | 0.853 | 0.493 | 0.476 | 0.541 | 0.518 | 0.498 | 0.376 | 0.352 | 1.03 | 0.994 | 0.929 | 1.02 | 0.844 | 0.514 | 0.563 | 0.581 | 0.525 | 0.562 |
| PC-3 [JPC-3] | 1.06 | 1.08 | 1.11 | 1.01 | 0.942 | 1.04 | 1.02 | 1.03 | 1.07 | 1.18 | 0.803 | 0.764 | 0.764 | 0.655 | 0.725 | 0.972 | 0.882 | 0.969 | 0.906 | 0.911 |
| NCI-H2085 | 1.2 | 1.15 | 0.93 | 0.858 | 0.806 | 0.908 | 1.07 | 0.97 | 0.843 | 0.674 | 0.433 | 0.581 | 0.528 | 0.466 | 0.472 | 0.911 | 0.787 | 0.982 | 0.823 | 0.793 |
| HCC-78 | 0.596 | 0.584 |  | 0.64 | 0.713 | 0.389 | 0.393 | 0.366 | 0.291 | 0.298 | 0.613 | 0.78 |  | 0.74 | 0.634 | 0.38 | 0.584 | 0.478 | 0.464 | 0.335 |
| NCI-H1395 | 1.03 | 0.95 | 0.975 | 0.501 | 0.561 | 1.04 |  | 1.08 | 0.873 | 0.943 | 0.701 | 0.601 | 0.646 | 0.459 | 0.521 | 1.12 | 1.01 | 1.24 | 0.855 | 1.09 |
| H3255 | 1.22 | 0.834 | 0.679 | 0.668 | 0.642 | 0.719 | 0.814 | 0.674 | 0.576 | 0.92 | 0.774 | 0.594 | 0.63 | 0.403 | 0.518 | 0.937 | 0.956 | 0.904 | 0.825 | 0.772 |
| HCC-15 | 1.13 | 0.951 | 0.998 |  | 0.906 | 0.851 | 0.859 | 0.928 | 0.798 | 0.593 | 0.608 | 0.516 | 0.446 | 0.427 | 0.507 | 0.945 | 0.801 | 0.815 | 0.812 | 0.846 |
| NCI-H727 | 1.08 | 0.888 | 0.852 | 1.15 | 1.15 | 0.699 | 0.7 | 0.692 | 0.761 | 0.54 |  | 1.07 | 0.676 | 0.662 | 0.973 | 0.246 | 0.183 | 0.495 |  | 0.299 |
| NCI-H2009 | 1.07 | 0.974 | 0.921 | 0.642 | 0.356 | 1.1 | 1.27 | 1.19 | 1.12 | 1.13 | 0.292 | 0.304 | 0.25 | 0.216 | 0.175 | 1.16 | 1.19 | 1.21 | 1.2 | 1.17 |
| COR-L23 | 0.91 | 0.778 | 0.569 | 0.182 | 0.176 | 0.847 | 0.822 | 0.758 | 0.715 | 0.682 | 0.469 | 0.401 | 0.215 | 0.186 | 0.166 | 0.864 | 0.94 | 0.815 | 0.874 | 0.914 |
| EMC-BAC-2 | 0.988 | 1 | 0.973 | 0.644 | 0.565 | 0.771 | 0.838 | 0.756 | 0.698 | 0.685 | 0.957 | 0.894 | 0.771 | 0.386 | 0.465 | 0.816 | 0.771 | 0.808 | 0.728 | 0.791 |
| LCLC-103H | 0.777 | 0.91 | 0.798 | 0.662 | 0.624 | 0.917 | 1.02 | 0.908 | 1.05 | 1.1 | 0.647 | 0.686 | 0.704 | 0.664 | 0.723 | 1.11 | 1.13 | 0.999 | 1.17 | 1.2 |
| LK-2 | 1.23 | 1.19 | 1.28 | 1.26 | 1.28 | 0.899 |  | 1.1 | 0.743 | 0.397 | 0.382 | 0.385 | 0.191 | 0.183 | 0.29 | 0.739 | 0.515 | 0.588 | 0.319 | 0.598 |
| NCI-H3122 | 1.06 | 0.969 | 0.935 | 0.972 | 0.832 | 0.715 | 0.823 | 0.729 | 0.923 | 0.821 | 0.429 | 0.428 | 0.49 | 0.401 | 0.42 | 1.11 | 1.11 | 1.01 | 1.08 | 0.93 |
| NCI-H2126 | 1.22 | 1.08 |  |  | 1.29 | 0.758 | 0.724 | 0.784 | 0.679 | 0.688 | 0.629 | 0.623 | 0.56 | 0.636 | 0.519 | 0.666 | 0.696 | 0.725 | 0.614 | 0.733 |
| NCI-H520 | 0.962 | 0.994 | 0.755 | 0.603 | 0.429 | 1.01 | 0.834 | 0.883 | 0.665 | 0.522 | 0.611 | 0.524 | 0.468 | 0.347 | 0.37 | 0.908 | 0.93 | 0.886 | 0.773 | 0.861 |
| LOU-NH91 | 0.92 | 0.83 | 0.697 | 0.47 | 0.525 | 0.726 |  | 0.728 | 0.65 | 0.747 | 0.794 | 0.698 | 0.65 | 0.561 | 0.533 | 0.807 | 0.923 | 0.963 | 0.87 | 1.04 |
| NCI-H1651 | 1 | 0.963 | 0.959 | 0.662 | 0.455 | 1.03 | 1.05 | 1.03 | 0.916 | 0.785 | 0.74 | 0.728 | 0.581 | 0.271 | 0.488 | 0.96 | 1.09 | 0.934 | 0.938 | 0.944 |
| NCI-H460 | 1.06 | 0.902 | 0.978 | 0.426 | 0.16 | 0.511 | 0.424 | 0.559 | 0.515 | 0.236 | 0.515 | 0.574 | 0.383 | 0.245 | 0.148 | 0.891 | 0.683 | 0.828 | 0.716 | 0.718 |
